Values quoted from earlier work in US6699676B1, “Uses of ouabain and ouabain-like molecules in apoptosis related pathologies” (Corporation du Centre de Recherche du Centre, Hospitalier …, priority 1999, dated 2004).

System: VSMC
Conditions: moderate elevation of [Ca2+]i, reference (37); cited from earlier work

SMILES	effect on VSMC apoptosis
C[C@H](CCC(=O)O)C[C@H](C)C[C@H](C)C(=O)/C=C(\O)[C@H](C)C[C@H](C)C/C=C/[C@@H](C)[C@@H](O)[C@@H](C)[C@@H](O)C[C@@H]1CC[C@@](C)([C@H]2CC[C@@](C)([C@@H](C)O)O2)O1 [ionomycin]	did not observe any effect
C/C=C(/C)C(=O)O[C@H]1C(C)=C2[C@H]([C@@H]1OC(=O)CCCCCCC)[C@@](C)(OC(C)=O)C[C@H](OC(=O)CCC)[C@@]1(O)[C@H]2OC(=O)[C@@]1(C)O [thapsigargin]	did not observe any effect
